According to article PMC3908673 (Bioorganic & medicinal chemistry, 2013):
Like-named read-outs stand apart in the source and are kept apart here.

Columns and labels:
β2-AR [1] = target: T1, β2-AR (Homo sapiens, UniProt P07550); conditions: marker [3H]-(R,R′)-2
β2-AR [2] = target: T1, β2-AR; type: binding
Gs proteins = conditions: ref [2]; cited from earlier work
[3] = test system: isolated rat ventricular myocytes; conditions: cited from earlier work
1321N1 astrocytoma cells [4] = conditions: read-out: IC50, proliferation of 1321N1 astrocytoma cells; ref [5]; cited from earlier work
[5] = target: β2-AR relative to the β1-AR; conditions: β2-AR subtype selectivity; ref [3]; cited from earlier work
[6] = test system: isolated rat ventricular myocytes; assay: cardiomyocyte contractility model; type: cell-based; conditions: initial studies, unpublished data
1321N1 astrocytoma cells [7] = assay: inhibition of proliferation of 1321N1 astrocytoma cells; type: cell-based; conditions: Homo sapiens, 1321-N1, read-out: IC50, proliferation of 1321N1 astrocytoma cells

T1 sequence (P07550 whole entry): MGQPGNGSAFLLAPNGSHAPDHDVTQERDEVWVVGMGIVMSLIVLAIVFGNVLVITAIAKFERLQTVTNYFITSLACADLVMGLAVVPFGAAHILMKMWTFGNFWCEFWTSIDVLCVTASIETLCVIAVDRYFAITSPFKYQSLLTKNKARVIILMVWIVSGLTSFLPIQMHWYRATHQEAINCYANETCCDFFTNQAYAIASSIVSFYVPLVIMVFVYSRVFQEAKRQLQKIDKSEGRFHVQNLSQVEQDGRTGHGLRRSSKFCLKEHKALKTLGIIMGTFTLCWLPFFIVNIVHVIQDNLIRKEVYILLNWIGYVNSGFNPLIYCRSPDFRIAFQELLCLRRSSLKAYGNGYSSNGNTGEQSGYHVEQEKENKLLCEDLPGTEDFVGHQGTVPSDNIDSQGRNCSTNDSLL

Structure (SMILES)	HS (Hill coefficient), displacement of [3H]-(R,R′)-2 (β2-AR [1])	HS (Hill coefficient), displacement of [3H]-CGP-12177 (β2-AR [2]; marker [3H]-CGP-12177)	other results
COc1ccc(CCNC[C@H](O)c2cc(O)cc(O)c2)cc1 [(R)-67, (R)-(−)-5-(1-Hydroxy-2-((4-methoxyphenethyl)amino)ethyl)benzene-1,3-diol]	1.59 ± 0.50	1.80 ± 0.70	Ki lower than (S)-67 (β2-AR [1]): 10 fold
C[C@H](Cc1ccc(O)cc1)NC[C@H](O)c1cc(O)cc(O)c1 [(R,R′)-1, (R,R′)-Fenoterol]	0.76 ± 0.1	–	G protein coupling (Gs proteins): selectively couples to Gs proteins; increase in contractile response ([3]; isolated rat ventricular myocytes, ref [1],[2]): 300%
COc1ccc(C[C@@H](C)NC[C@H](O)c2cc(O)cc(O)c2)cc1 [(R,R′)-2, (R,R′)-4′-methoxyfenoterol]	0.80 ± 0.9	–	G protein coupling (Gs proteins): selectively signaled through Gs proteins; HS (Hill coefficient), displacement of [3H]-CGP-12177 (β2-AR [2]): 0.98 ± 0.05
CC[C@H](Cc1ccc(O)cc1)NC[C@H](O)c1cc(O)cc(O)c1 [(R,R′)-52]	0.93 ± 0.1	1.01 ± 0.01	IC50 (1321N1 astrocytoma cells [4]): 1.4 nM; Kiβ1-AR/Kiβ2-AR [5]: 334; stimulation of rat cardiomyocyte contractility ([3]; ref [3]): essentially inactive; lower activity in the cardiomyocyte contractility model ([3]; relative to other tested compounds, ref [3]): > 100 fold
COc1ccc(C[C@@H](C)NC[C@H](O)c2cc(O)cc(O)c2)c2ccccc12 [(R,R′)-54]	0.86 ± 0.1	1.07 ± 0.09	–
CC[C@H](Cc1ccc(OC)cc1)NC[C@H](O)c1cc(O)cc(O)c1 [(R,R′)-64, (R,R′)-(−)-5-(1-Hydroxy-2-((1-(4-methoxyphenyl)butan-2-yl)amino)ethyl)benzene-1,3-diol]	0.82 ± 0.04	1.00 ± 0.11	activity in the cardiomyocyte contractility model [6]: no activity; decrease in binding affinity compared with (R,R′)-2 (β2-AR [1]): 10 fold; IC50 (1321N1 astrocytoma cells [7]): 1.5 nM; Ki lower than (R,R′)-52 (β2-AR [2]; marker [3H]-CGP-12177): 3 fold; Ki(R,S′)/Ki(R,R′) (β2-AR [2]; marker [3H]-CGP-12177, difference between (R,S′)- and (R,R′)-isomers): 50 fold
COc1ccc(C[C@H](NC[C@H](O)c2cc(O)cc(O)c2)C(C)C)cc1 [(R,R′)-65, (R,R′)-5-(1-Hydroxy-2-((1-(4-methoxyphenyl)-3-methylbutan-2-yl)amino)ethyl)-benzene-1,3-diol]	1.41 ± 0.47	–	–
CCC[C@H](Cc1ccc(OC)cc1)NC[C@H](O)c1cc(O)cc(O)c1 [(R,R′)-66, (R,R′)-5-(1-Hydroxy-2-((1-(4-methoxyphenyl)pentan-2-yl)amino)ethyl)benzene-1,3-diol]	1.38 ± 0.32	0.90 ± 0.03	–
C[C@@H](Cc1ccc(O)cc1)NC[C@H](O)c1cc(O)cc(O)c1 [(R,S′)-1]	0.97 ± 0.1	0.81 ± 0.1	–
COc1ccc(C[C@H](C)NC[C@H](O)c2cc(O)cc(O)c2)cc1 [(R,S′)-2]	1.00 ± 0.05	–	HS (Hill coefficient), displacement of [3H]-CGP-12177 (β2-AR [2]): 1.01 ± 0.14
CC[C@@H](Cc1ccc(O)cc1)NC[C@H](O)c1cc(O)cc(O)c1 [(R,S′)-52]	0.87 ± 0.2	2.07 ± 0.4	–
COc1ccc(C[C@H](C)NC[C@H](O)c2cc(O)cc(O)c2)c2ccccc12 [(R,S′)-54]	0.90 ± 0.2	1.06 ± 0.02	–
CC[C@@H](Cc1ccc(OC)cc1)NC[C@H](O)c1cc(O)cc(O)c1 [(R,S′)-64, (R,S′)-(+)-5-(1-Hydroxy-2-((1-(4-methoxyphenyl)butan-2-yl)amino)ethyl)benzene-1,3-diol]	0.86 ± 0.05	–	–
COc1ccc(C[C@@H](NC[C@H](O)c2cc(O)cc(O)c2)C(C)C)cc1 [(R,S′)-65, (R,S′)-(−)-5-(1-hydroxy-2-((1-(4-methoxyphenyl)-3-methylbutan-2-yl)amino)-ethyl)benzene-1,3-diol]	1.45 ± 0.56	–	–
CCC[C@@H](Cc1ccc(OC)cc1)NC[C@H](O)c1cc(O)cc(O)c1 [(R,S′)-66, (R,S′)-5-(1-Hydroxy-2-((1-(4-methoxyphenyl)pentan-2-yl)amino)ethyl)benzene-1,3-diol]	0.89 ± 0.14	–	–
COc1ccc(CCNC[C@@H](O)c2cc(O)cc(O)c2)cc1 [(S)-67, (S)-5-(1-Hydroxy-2-((4-methoxyphenethyl)amino)ethyl)benzene-1,3-diol]	0.89 ± 0.03	–	–
COc1ccc(C[C@@H](C)NC[C@@H](O)c2cc(O)cc(O)c2)cc1 [(S,R′)-2]	0.86 ± 0.13	–	–
COc1ccc(C[C@H](C)NC[C@@H](O)c2cc(O)cc(O)c2)cc1 [(S,S′)-2]	1.68 ± 0.54	–	HS (Hill coefficient), displacement of [3H]-CGP-12177 (β2-AR [2]): 2.30 ± 0.32
